# Assay results taken from ChEMBL document CHEMBL3621115, “Discovery of 6-phenylimidazo[2,1-b]thiazole derivatives as a new type of FLT3 inhibitors” (Bioorg Med Chem Lett, 2015).
# Tests used:
# [1] = biological target: Mast/stem cell growth factor receptor Kit (Homo sapiens, UniProt P10721); test: Inhibition of human recombinant ckit
# [2] = biological target: Serine/threonine-protein kinase PLK1 (Homo sapiens, UniProt P53350); test: Inhibition of human recombinant Plk1
# [3] = biological target: Insulin-like growth factor 1 receptor (Homo sapiens, UniProt P08069); test: Inhibition of human recombinant IGF-1R
# [4] = biological target: Tyrosine-protein kinase ABL1 (Homo sapiens, UniProt P00519); test: Inhibition of human recombinant Abl
# [5] = biological target: Receptor tyrosine-protein kinase erbB-2 (Homo sapiens, UniProt P04626); test: Inhibition of human recombinant ErbB2
# [6] = biological target: 5'-AMP-activated protein kinase catalytic subunit alpha-1 (Homo sapiens, UniProt Q13131); test: Inhibition of human recombinant AMPKalpha1
# [7] = biological target: Macrophage colony-stimulating factor 1 receptor (Homo sapiens, UniProt P07333); test: Inhibition of human recombinant Fms
# Macrophage colony-stimulating factor 1 receptor, sequence (P07333 whole entry): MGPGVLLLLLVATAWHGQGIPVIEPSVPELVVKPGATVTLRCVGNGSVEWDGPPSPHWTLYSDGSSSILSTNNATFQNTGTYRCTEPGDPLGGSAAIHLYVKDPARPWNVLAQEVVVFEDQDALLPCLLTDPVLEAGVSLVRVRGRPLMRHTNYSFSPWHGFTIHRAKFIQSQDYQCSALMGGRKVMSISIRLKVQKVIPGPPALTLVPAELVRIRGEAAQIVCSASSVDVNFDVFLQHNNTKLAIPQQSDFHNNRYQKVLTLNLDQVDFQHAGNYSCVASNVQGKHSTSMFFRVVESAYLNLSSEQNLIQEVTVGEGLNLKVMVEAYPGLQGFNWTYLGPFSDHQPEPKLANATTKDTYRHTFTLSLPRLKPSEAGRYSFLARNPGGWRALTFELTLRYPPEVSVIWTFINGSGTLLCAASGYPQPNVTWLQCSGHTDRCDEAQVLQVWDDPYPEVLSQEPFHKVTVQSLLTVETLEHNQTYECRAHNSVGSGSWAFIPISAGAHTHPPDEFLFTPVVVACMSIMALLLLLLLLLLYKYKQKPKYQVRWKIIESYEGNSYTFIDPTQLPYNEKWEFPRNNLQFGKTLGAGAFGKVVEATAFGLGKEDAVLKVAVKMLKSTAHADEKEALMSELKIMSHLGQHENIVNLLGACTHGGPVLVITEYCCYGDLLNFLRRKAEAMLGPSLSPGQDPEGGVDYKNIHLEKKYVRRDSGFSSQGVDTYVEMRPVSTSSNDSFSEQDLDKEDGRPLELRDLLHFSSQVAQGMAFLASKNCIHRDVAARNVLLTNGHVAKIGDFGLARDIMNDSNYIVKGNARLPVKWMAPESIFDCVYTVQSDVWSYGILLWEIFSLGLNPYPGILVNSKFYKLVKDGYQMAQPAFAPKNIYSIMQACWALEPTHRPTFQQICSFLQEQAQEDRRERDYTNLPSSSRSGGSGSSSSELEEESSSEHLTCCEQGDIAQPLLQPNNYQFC
# [8] = Cytotoxicity against human SKBR3 cells assessed as cell viability after 72 hrs by MTT assay; type: functional, cell-based; details: SK-BR-3, 72 h
# [9] = biological target: Serine/threonine-protein kinase pim-1 (Homo sapiens, UniProt P11309); test: Inhibition of human recombinant Pim1
# Serine/threonine-protein kinase pim-1, sequence (P11309 whole entry): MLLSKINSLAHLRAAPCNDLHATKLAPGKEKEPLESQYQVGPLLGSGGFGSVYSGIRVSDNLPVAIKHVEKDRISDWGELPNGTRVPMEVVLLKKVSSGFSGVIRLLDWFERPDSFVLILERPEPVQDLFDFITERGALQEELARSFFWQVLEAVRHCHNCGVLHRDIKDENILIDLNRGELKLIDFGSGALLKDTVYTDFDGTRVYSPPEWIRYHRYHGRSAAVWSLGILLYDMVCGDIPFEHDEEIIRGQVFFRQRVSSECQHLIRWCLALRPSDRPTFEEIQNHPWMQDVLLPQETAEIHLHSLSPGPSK
# SW480 = test: Cytotoxicity against human SW480 cells assessed as cell viability after 72 hrs by MTT assay; type: functional, cell-based; details: SW480, 72 h
# [10] = biological target: Mitogen-activated protein kinase 10 (Homo sapiens, UniProt P53779); test: Inhibition of human recombinant JNK3
# [11] = biological target: Serine/threonine-protein kinase PAK 1 (Homo sapiens, UniProt Q13153); test: Inhibition of human recombinant PAK1
# [12] = Cytotoxicity against human SKHEP1 cells assessed as cell viability after 72 hrs by MTT assay; type: functional, cell-based; details: SK-HEP1, 72 h
# A-375 = test: Cytotoxicity against human A375 cells assessed as cell viability after 72 hrs by MTT assay; type: functional, cell-based; details: A-375, 72 h
# [13] = biological target: Tyrosine-protein kinase BTK (Homo sapiens, UniProt Q06187); test: Inhibition of human recombinant BTK
# Tyrosine-protein kinase BTK, sequence (Q06187 whole entry): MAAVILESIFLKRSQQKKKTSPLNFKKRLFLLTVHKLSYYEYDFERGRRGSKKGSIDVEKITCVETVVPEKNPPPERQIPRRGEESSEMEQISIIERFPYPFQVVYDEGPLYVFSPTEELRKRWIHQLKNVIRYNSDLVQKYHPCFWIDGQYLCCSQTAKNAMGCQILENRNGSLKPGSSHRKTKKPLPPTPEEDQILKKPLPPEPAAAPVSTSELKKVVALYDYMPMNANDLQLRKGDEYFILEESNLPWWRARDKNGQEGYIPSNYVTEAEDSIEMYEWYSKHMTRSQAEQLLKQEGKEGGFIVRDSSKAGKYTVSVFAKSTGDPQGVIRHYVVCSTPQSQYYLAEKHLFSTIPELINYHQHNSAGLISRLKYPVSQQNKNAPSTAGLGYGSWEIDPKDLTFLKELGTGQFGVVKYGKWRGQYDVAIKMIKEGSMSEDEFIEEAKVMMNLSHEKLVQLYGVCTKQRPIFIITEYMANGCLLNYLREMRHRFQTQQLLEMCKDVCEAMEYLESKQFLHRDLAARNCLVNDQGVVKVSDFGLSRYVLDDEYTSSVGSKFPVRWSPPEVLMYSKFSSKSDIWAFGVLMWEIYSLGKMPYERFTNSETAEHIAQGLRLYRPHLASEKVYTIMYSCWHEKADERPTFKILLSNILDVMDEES
# [14] = biological target: Vascular endothelial growth factor receptor 1 (Homo sapiens, UniProt P17948); test: Inhibition of human recombinant Flt1
# [15] = biological target: T1, Receptor-type tyrosine-protein kinase FLT3 (Homo sapiens, UniProt P36888); test: Inhibition of human recombinant Flt3
# T1 sequence (P36888 whole entry): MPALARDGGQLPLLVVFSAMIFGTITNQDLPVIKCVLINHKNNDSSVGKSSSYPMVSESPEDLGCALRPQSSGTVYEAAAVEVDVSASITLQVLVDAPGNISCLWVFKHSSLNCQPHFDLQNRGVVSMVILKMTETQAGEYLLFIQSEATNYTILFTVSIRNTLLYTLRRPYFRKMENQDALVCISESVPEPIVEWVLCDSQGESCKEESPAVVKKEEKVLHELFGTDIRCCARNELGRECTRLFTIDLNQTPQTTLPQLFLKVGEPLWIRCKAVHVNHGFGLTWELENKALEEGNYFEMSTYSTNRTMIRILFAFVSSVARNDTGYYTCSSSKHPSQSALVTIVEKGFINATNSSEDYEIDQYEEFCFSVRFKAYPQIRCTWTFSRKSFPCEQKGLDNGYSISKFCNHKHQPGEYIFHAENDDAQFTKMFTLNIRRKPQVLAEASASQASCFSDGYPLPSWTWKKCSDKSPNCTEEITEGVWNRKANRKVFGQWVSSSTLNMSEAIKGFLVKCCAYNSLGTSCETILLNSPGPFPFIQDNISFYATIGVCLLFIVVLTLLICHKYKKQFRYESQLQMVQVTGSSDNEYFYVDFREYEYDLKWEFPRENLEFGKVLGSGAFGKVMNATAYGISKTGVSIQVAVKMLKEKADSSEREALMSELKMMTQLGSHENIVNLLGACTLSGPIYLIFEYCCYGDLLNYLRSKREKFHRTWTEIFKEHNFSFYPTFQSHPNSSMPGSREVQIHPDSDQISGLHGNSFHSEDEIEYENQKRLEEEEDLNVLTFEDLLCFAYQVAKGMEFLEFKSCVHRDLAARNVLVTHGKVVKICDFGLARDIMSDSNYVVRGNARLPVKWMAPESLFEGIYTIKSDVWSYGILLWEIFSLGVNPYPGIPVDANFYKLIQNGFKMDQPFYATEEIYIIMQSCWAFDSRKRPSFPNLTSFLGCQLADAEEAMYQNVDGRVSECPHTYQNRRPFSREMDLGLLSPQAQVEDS
# Jurkat = test: Cytotoxicity against human Jurkat cells assessed as cell viability after 72 hrs by MTT assay; type: functional, cell-based
# MCF7 = test: Cytotoxicity against human MCF7 cells assessed as cell viability after 72 hrs by MTT assay; type: functional, cell-based; details: MCF7, 72 h
# SH-SY5Y = test: Cytotoxicity against human SH-SY5Y cells assessed as cell viability after 72 hrs by MTT assay; type: functional, cell-based
# [16] = biological target: RAF proto-oncogene serine/threonine-protein kinase (Homo sapiens, UniProt P04049); test: Inhibition of human recombinant c-RAF
# [17] = Cytotoxicity against human PC9 cells assessed as cell viability after 72 hrs by MTT assay; type: functional, cell-based; details: PC-9, 72 h
# [18] = biological target: Serine/threonine-protein kinase D1 (Homo sapiens, UniProt Q15139); test: Inhibition of human recombinant PKCmu
# HCT-116 = test: Cytotoxicity against human HCT116 cells assessed as cell viability after 72 hrs by MTT assay; type: functional, cell-based; details: HCT-116, 72 h
# [19] = biological target: Serine/threonine-protein kinase PAK 4 (Homo sapiens, UniProt O96013); test: Inhibition of human recombinant PAK4
# NCI-H1975 = test: Cytotoxicity against human NCI-H1975 cells assessed as cell viability after 72 hrs by MTT assay; type: functional, cell-based; details: NCI-H1975, 72 h
# [20] = biological target: Serine/threonine-protein kinase D2 (Homo sapiens, UniProt Q9BZL6); test: Inhibition of human recombinant PKD2
# Serine/threonine-protein kinase D2, sequence (Q9BZL6 whole entry): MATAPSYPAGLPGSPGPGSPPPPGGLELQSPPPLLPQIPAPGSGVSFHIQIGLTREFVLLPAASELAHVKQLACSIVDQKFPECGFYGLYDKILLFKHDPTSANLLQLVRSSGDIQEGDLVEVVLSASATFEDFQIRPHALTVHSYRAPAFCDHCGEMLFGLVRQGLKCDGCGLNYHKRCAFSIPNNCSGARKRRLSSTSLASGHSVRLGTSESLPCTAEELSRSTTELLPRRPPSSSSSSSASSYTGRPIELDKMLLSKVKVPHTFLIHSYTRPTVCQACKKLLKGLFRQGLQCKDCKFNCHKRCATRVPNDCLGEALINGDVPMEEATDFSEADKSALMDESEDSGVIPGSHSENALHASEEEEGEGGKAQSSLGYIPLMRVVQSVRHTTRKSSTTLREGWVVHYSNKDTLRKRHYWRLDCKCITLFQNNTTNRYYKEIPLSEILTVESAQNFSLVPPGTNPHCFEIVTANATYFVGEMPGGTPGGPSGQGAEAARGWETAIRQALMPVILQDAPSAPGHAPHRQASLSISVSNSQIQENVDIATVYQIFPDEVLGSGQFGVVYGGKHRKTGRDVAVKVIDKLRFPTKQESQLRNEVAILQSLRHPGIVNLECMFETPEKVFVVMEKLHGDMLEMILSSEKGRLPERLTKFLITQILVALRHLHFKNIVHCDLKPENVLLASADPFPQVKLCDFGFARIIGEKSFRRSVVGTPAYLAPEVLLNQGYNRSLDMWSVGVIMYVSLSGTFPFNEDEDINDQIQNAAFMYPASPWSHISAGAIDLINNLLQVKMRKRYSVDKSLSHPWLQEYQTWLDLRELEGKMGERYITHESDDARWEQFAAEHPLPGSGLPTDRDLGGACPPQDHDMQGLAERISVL
# Myotonin-protein kinase = Myotonin-protein kinase (Homo sapiens, UniProt Q09013); test: Inhibition of human recombinant DMPK
# MDA-MB-157 = test: Cytotoxicity against human MDA-MB-157 cells assessed as cell viability after 72 hrs by MTT assay; type: functional, cell-based; details: MDA-MB-157, 72 h
# [21] = Cytotoxicity against human DLD1 cells assessed as cell viability after 72 hrs by MTT assay; type: functional, cell-based; details: DLD-1, 72 h
# [22] = Cytotoxicity against human A875 cells assessed as cell viability after 72 hrs by MTT assay; type: functional, cell-based; details: A875, 72 h
# [23] = biological target: Tyrosine-protein kinase ABL2 (Homo sapiens, UniProt P42684); test: Inhibition of human recombinant Arg
# Tyrosine-protein kinase ABL2, sequence (P42684 whole entry): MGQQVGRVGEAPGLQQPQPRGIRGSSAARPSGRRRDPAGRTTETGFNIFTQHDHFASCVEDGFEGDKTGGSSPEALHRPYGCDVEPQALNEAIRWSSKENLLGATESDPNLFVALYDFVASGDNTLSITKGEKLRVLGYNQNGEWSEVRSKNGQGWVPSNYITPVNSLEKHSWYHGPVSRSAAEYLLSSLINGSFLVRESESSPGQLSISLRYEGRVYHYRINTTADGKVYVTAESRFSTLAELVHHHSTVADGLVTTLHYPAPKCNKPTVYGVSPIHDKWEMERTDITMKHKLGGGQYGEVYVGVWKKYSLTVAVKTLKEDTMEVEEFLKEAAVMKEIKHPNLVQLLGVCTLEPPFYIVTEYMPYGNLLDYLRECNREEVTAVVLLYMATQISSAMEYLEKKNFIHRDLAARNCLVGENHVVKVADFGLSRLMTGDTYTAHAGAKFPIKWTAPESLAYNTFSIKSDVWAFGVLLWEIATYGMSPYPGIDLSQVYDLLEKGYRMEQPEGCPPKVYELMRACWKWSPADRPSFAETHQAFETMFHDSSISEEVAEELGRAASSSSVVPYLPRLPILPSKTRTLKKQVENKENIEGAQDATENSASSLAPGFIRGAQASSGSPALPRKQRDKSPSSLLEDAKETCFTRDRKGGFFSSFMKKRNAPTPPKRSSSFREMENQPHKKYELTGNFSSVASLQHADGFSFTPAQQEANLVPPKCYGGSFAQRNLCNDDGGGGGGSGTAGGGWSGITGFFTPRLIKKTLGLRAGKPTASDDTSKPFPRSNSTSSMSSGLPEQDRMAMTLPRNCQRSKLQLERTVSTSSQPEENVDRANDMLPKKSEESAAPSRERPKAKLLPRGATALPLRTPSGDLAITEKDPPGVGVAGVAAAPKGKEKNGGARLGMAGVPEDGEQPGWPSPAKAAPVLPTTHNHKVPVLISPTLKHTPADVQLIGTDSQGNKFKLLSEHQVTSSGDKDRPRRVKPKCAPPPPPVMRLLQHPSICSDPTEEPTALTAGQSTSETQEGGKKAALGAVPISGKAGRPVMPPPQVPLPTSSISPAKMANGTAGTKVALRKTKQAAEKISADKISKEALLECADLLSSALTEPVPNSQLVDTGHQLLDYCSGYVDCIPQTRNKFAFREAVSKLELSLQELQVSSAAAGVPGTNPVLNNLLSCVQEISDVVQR
# HeLa = test: Cytotoxicity against human HeLa cells assessed as cell viability after 72 hrs by MTT assay; type: functional, cell-based
# [24] = biological target: Cyclin-dependent kinase 7 (Homo sapiens, UniProt P50613); test: Inhibition of human recombinant CDK7
# [25] = Cytotoxicity against human Calu6 cells assessed as cell viability after 72 hrs by MTT assay; type: functional, cell-based; details: Calu-6, 72 h
# HepG2 = test: Cytotoxicity against human HepG2 cells assessed as cell viability after 72 hrs by MTT assay; type: functional, cell-based; details: HepG2, 72 h
# Mast/stem cell growth factor receptor Kit, sequence (P10721 whole entry): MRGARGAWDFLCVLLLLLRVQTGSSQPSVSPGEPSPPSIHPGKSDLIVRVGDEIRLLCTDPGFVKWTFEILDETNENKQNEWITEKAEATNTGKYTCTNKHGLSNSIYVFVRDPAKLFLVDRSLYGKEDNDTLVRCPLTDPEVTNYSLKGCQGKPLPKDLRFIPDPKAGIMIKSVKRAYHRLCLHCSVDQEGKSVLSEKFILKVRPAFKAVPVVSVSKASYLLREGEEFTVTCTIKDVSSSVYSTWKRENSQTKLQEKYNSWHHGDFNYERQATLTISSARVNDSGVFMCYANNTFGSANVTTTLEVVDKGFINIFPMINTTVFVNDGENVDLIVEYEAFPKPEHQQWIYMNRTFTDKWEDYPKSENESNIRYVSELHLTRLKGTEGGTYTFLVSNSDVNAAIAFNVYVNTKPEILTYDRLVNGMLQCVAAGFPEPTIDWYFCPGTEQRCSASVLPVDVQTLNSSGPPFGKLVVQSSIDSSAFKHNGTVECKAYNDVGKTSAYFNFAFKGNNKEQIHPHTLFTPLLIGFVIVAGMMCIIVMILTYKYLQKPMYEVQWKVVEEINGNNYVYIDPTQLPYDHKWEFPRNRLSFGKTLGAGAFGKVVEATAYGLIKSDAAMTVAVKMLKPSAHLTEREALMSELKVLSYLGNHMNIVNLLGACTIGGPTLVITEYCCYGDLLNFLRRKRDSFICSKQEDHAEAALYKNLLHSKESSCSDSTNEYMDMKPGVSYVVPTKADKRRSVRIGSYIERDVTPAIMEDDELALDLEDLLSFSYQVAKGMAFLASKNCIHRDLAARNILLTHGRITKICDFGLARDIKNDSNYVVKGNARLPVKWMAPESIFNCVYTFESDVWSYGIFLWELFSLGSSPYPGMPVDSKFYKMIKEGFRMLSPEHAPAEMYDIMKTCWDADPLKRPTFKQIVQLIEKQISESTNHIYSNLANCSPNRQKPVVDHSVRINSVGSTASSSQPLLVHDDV
smiles,measurement,setting,value
CN(C)CCCNC(=O)c1csc2nc(-c3ccc(NC(=O)Nc4cc(C(C)(C)C)on4)cc3)cn12,IC50,[1],0.294 µM
same,IC50,[2],> 10 µM
same,IC50,[3],> 10 µM
same,IC50,[4],> 10 µM
same,IC50,[5],> 10 µM
same,IC50,[6],> 10 µM
same,IC50,[7],0.043 µM
same,IC50,[8],10 µM
same,IC50,[9],4.04 µM
same,IC50,SW480,10 µM
same,IC50,[10],> 10 µM
same,IC50,[11],> 10 µM
same,IC50,[12],10 µM
same,IC50,A-375,10 µM
same,IC50,[13],> 10 µM
same,IC50,[14],2.83 µM
same,IC50,[15],0.022 µM
same,IC50,Jurkat,10 µM
same,IC50,MCF7,> 10 µM
same,IC50,SH-SY5Y,3.3 µM
same,IC50,[16],> 10 µM
same,IC50,[17],> 10 µM
same,IC50,[18],> 10 µM
same,IC50,HCT-116,10 µM
same,IC50,[19],> 10 µM
same,IC50,NCI-H1975,> 10 µM
same,IC50,[20],> 10 µM
same,IC50,Myotonin-protein kinase,> 10 µM
same,IC50,MDA-MB-157,> 10 µM
same,IC50,[21],10 µM
same,IC50,[22],10 µM
same,IC50,[23],> 10 µM
same,IC50,HeLa,20 µM
same,IC50,[24],> 10 µM
same,IC50,[25],10 µM
same,IC50,HepG2,10 µM
